Assay results: patent US20060063753A1 (priority 2002, published 2006)

Tests used:
[1] = order of potency (+)-nefopam > (±)-nefopam > (−)-nefopam; cited from earlier work
norepinephrine uptake = settings: order of potency (+)-nefopam > (±)-nefopam > (−)-nefopam; cited from earlier work
serotonin-uptake = settings: order of potency (+)-nefopam > (±)-nefopam > (−)-nefopam; cited from earlier work
dopamine uptake = settings: order of potency (+)-nefopam > (±)-nefopam > (−)-nefopam; cited from earlier work
opiate receptors = settings: cited from earlier work
[2] = tested on: emesis (retching and vomiting); test: emesis caused by opioid (morphine) and other proemetic agents (cisplatin) in ferrets; assay type: in vivo; settings: i.p. pre-dosing, morphine 0.125 mg/kg s.c. or cisplatin 5 mg/kg i.p.
Protocol: Male ferrets (0.9- 1.7 kg) obtained from Leeds University were housed in pairs at 22±1° C. and had free access to food (SDS Diet ‘C’ (E), Special Diet Services, UK) and water. They were housed under artificial lighting with lights on between 07:00 and 21:00 hours. For experimental use, animals were removed from their holding cages and placed individually into observation cages. The animals were allowed free access to water and food. The animals were divided into separate groups of 4 animals per group. Animals were frequently observed throughout the experiments by a trained technician to ensure that the animals remained in good health. In addition, animal behaviour was video recorded for subsequent analysis of emesis (see Rudd et al., 1994). Emesis was characterized by rhythmic abdominal contractions which were either associated with the oral expulsion of solid or liquid material from the gastrointestinal tract (i.e. vomiting) or not associated with the passage of material (i.e. retching movements). The number of highly distinctive abdominal contractions was counted. (+)-Nefopam was dissolved in saline and administered in a volume of 1 ml/kg. […] Observations were recorded over a 4 hr period post-morphine dosing and scored for incidences of retching and vomiting. […] Observations were recorded over the 72 hr period post-cisplatin dosing and scored for incidences of retching and vomiting.

Structure (SMILES)	analgesic properties, potency compared with (−)-nefopam [1]	norepinephrine uptake inhibitory properties, potency compared with (−)-nefopam (norepinephrine uptake)	serotonin-uptake inhibitory properties, potency compared with (−)-nefopam (serotonin-uptake)	dopamine uptake inhibitory properties, potency compared with (−)-nefopam (dopamine uptake)	antinociception in animal models of pain and in humans (opiate receptors; animal models of pain and humans)	blockade of antinociception by nalaxone (opiate receptors; nalaxone)	effect on emesis caused by opioid and other recognised proemetic agents [2]
CN1CCO[C@@H](c2ccccc2)c2ccccc2C1 [(+)-nefopam]	more potent	more potent	more potent	more potent	–	–	–
CN1CCOC(c2ccccc2)c2ccccc2C1 (racemic) [nefopam]	–	–	–	–	induce antinociception	not blocked	able to prevent or diminish emesis
